# Test system: recombinant NL4-3 virus (Renilla luciferase in nef, Gag P373S)
# Test: HIV cell culture assay (luciferase activity in MT-2 cells infected with NLRluc recombinant virus)
# Type: cell-based
# Settings: NL43, MT-2 cells infected 4-5 days with NLRluc recombinant virus
# Procedure, shortened: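 Activity was read as luciferase output (Dual Luciferase reagents premixed with lysis solution) after 4–5 days of infection in serially diluted inhibitor. Host cells were MT-2 in 10% FBS RPMI. The reporter virus came from transfected 293T cells and was titered on MT-2.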
smiles,measurement,setting,value
"C=C(C)[C@@H]1CC[C@]2(CNCC(=O)N3CCS(=O)(=O)CC3)CC[C@]3(C)[C@H](CC[C@@H]4[C@@]5(C)CC=C(c6ccc(C(=O)O)cc6)C(C)(C)[C@@H]5CC[C@]43C)[C@@H]12 [Example 108, 4-((1R,3aS,5aR,5bR,7aR,11aS,11bR,13aR,13bR)-3a-(((2-(1,1-dioxido-4-thiomorpholinyl)-2-oxoethyl)amino)methyl)-1-isopropenyl-5a,5b,8,8,11a-pentamethyl-2,3,3a,4,5,5a,5b,6,7,7a,8,11,11a,11b,12,13,13a,13b-octadecahydro-1H-cyclopenta[a]chrysen-9-yl)benzoic acid]",EC50,class symbol,< 100 nM
"C=C(C)[C@@H]1CC[C@]2(CNCc3ccoc3)CC[C@]3(C)[C@H](CC[C@@H]4[C@@]5(C)CC=C(c6ccc(C(=O)O)cc6)C(C)(C)[C@@H]5CC[C@]43C)[C@@H]12 [Example 53, 4-((1R,3aS,5aR,5bR,7aR,11aS,11bR,13aR,13bR)-3a-((furan-3-ylmethylamino)methyl)-5a,5b,8,8,11a-pentamethyl-1-(prop-1-en-2-yl)-2,3,3a,4,5,5a,5b,6,7,7a,8,11,11a,11b,12,13,13a,13b-octadecahydro-1H-cyclopenta[a]chrysen-9-yl)benzoic acid]",EC50,class symbol,< 100 nM
C=C(C)[C@@H]1CC[C@]2(CN3CCCC3=O)CC[C@]3(C)[C@H](CC[C@@H]4[C@@]5(C)CC=C(c6ccc(C(=O)O)cc6)C(C)(C)[C@@H]5CC[C@]43C)[C@@H]12 [Example 29],EC50,numeric value,1000 nM
"C=C(C)[C@@H]1CC[C@]2(CNC(=O)C(F)(F)C(=O)NCCN(C)C)CC[C@]3(C)[C@H](CC[C@@H]4[C@@]5(C)CC=C(c6ccc(C(=O)O)cc6)C(C)(C)[C@@H]5CC[C@]43C)[C@@H]12 [Example 152, 4-((1R,3aS,5aR,5bR,7aR,11aS,11bR,13aR,13bR)-3a-((3-(2-(dimethylamino)ethylamino)-2,2-difluoro-3-oxopropanamido)methyl)-5a,5b,8,8,11a-pentamethyl-1-(prop-1-en-2-yl)-2,3,3a,4,5,5a,5b,6,7,7a,8,11,11a,11b,12,13,13a,13b-octadecahydro-1H-cyclopenta[a]chrysen-9-yl)benzoic acid]",EC50,class symbol,< 100 nM
C=C(C)[C@@H]1CC[C@]2(CN(C)CCN3CCS(=O)(=O)CC3)CC[C@]3(C)[C@H](CC[C@@H]4[C@@]5(C)CC=C(c6ccc(C(=O)O)cc6)C(C)(C)[C@@H]5CC[C@]43C)[C@@H]12 [Example 33],EC50,class symbol,< 100 nM
C=C(C)[C@@H]1CC[C@]2(CNCCS(N)(=O)=O)CC[C@]3(C)[C@H](CC[C@@H]4[C@@]5(C)CC=C(c6ccc(C(=O)O)cc6)C(C)(C)[C@@H]5CC[C@]43C)[C@@H]12 [Example 45],EC50,class symbol,< 100 nM
"C=C(C)[C@@H]1CC[C@]2(CNC(=O)NCC(=O)O)CC[C@]3(C)[C@H](CC[C@@H]4[C@@]5(C)CC=C(c6ccc(C(=O)O)cc6)C(C)(C)[C@@H]5CC[C@]43C)[C@@H]12 [Example 157, 4-((1R,3aS,5aR,5bR,7aR,11aS,11bR,13aR,13bR)-3a-((3-(carboxymethyl)ureido)methyl)-5a,5b,8,8,11a-pentamethyl-1-(prop-1-en-2-yl)-2,3,3a,4,5,5a,5b,6,7,7a,8,11,11a,11b,12,13,13a,13b-octadecahydro-1H-cyclopenta[a]chrysen-9-yl)benzoic acid]",EC50,numeric value,40 nM
"C=C(C)[C@@H]1CC[C@]2(CNCC(=O)N3CCC[C@@H]3C(=O)O)CC[C@]3(C)[C@H](CC[C@@H]4[C@@]5(C)CC=C(c6ccc(C(=O)O)cc6)C(C)(C)[C@@H]5CC[C@]43C)[C@@H]12 [Example 114, (R)-1-(2-(((1R,3aS,5aR,5bR,7aR,11aS,11bR,13aR,13bR)-9-(4-carboxyphenyl)-5a,5b,8,8,11a-pentamethyl-1-(prop-1-en-2-yl)-2,3,3a,4,5,5a,5b,6,7,7a,8,11,11a,11b,12,13,13a,13b-octadecahydro-1H-cyclopenta[a]chrysen-3a-yl)methylamino)acetyl)pyrrolidine-2-carboxylic acid]",EC50,class symbol,< 100 nM
"C=C(C)[C@@H]1CC[C@]2(CNC(=O)c3cccc(C(=O)O)c3)CC[C@]3(C)[C@H](CC[C@@H]4[C@@]5(C)CC=C(c6ccc(C(=O)O)cc6)C(C)(C)[C@@H]5CC[C@]43C)[C@@H]12 [Example 143, 3-(((1R,3aS,5aR,5bR,7aR,11aS,11bR,13aR,13bR)-9-(4-carboxyphenyl)-5a,5b,8,8,11a-pentamethyl-1-(prop-1-en-2-yl)-2,3,3a,4,5,5a,5b,6,7,7a,8,11,11a,11b,12,13,13a,13b-octadecahydro-1H-cyclopenta[a]chrysen-3a-yl)methylcarbamoyl)benzoic acid]",EC50,class symbol,< 100 nM
"C=C(C)[C@@H]1CC[C@]2(CNCCc3ccc(C(=O)OC)cc3)CC[C@]3(C)[C@H](CC[C@@H]4[C@@]5(C)CC=C(c6ccc(C(=O)O)cc6)C(C)(C)[C@@H]5CC[C@]43C)[C@@H]12 [Example 46, 4-((1R,3aS,5aR,5bR,7aR,11aS,11bR,13aR,13bR)-3a-((4-(methoxycarbonyl)phenethylamino)methyl)-5a,5b,8,8,11a-pentamethyl-1-(prop-1-en-2-yl)-2,3,3a,4,5,5a,5b,6,7,7a,8,11,11a,11b,12,13,13a,13b-octadecahydro-1H-cyclopenta[a]chrysen-9-yl)benzoic acid]",EC50,class symbol,< 100 nM
"C=C(C)[C@@H]1CC[C@]2(CNCCN3CCS(=O)(=O)CC3)CC[C@]3(C)[C@H](CC[C@@H]4[C@@]5(C)CC=C(c6ccc(C(=O)O)c(F)c6)C(C)(C)[C@@H]5CC[C@]43C)[C@@H]12 [Example 95, 4-((1R,3aS,5aR,5bR,7aR,11aS,11bR,13aR,13bR)-3a-(((2-(1,1-dioxido-4-thiomorpholinyl)ethyl)amino)methyl)-1-isopropenyl-5a,5b,8,8,11a-pentamethyl-2,3,3a,4,5,5a,5b,6,7,7a,8,11,11a,11b,12,13,13a,13b-octadecahydro-1H-cyclopenta[a]chrysen-9-yl)-2-fluorobenzoic acid]",EC50,class symbol,< 100 nM
"C=C(C)[C@@H]1CC[C@]2(CNC3(C(=O)N4CCS(=O)(=O)CC4)CC3)CC[C@]3(C)[C@H](CC[C@@H]4[C@@]5(C)CC=C(c6ccc(C(=O)O)cc6)C(C)(C)[C@@H]5CC[C@]43C)[C@@H]12 [Example 116, 4-((1R,3aS,5aR,5bR,7aR,11aS,11bR,13aR,13bR)-3a-(((1-((1,1-dioxido-4-thiomorpholinyl)carbonyl)cyclopropyl)amino)methyl)-1-isopropenyl-5a,5b,8,8,11a-pentamethyl-2,3,3a,4,5,5a,5b,6,7,7a,8,11,11a,11b,12,13,13a,13b-octadecahydro-1H-cyclopenta[a]chrysen-9-yl)benzoic acid]",EC50,class symbol,< 100 nM
"C=C(C)[C@@H]1CC[C@]2(CNC(=O)[C@@H](N)Cc3c[nH]cn3)CC[C@]3(C)[C@H](CC[C@@H]4[C@@]5(C)CC=C(c6ccc(C(=O)O)cc6)C(C)(C)[C@@H]5CC[C@]43C)[C@@H]12 [Example 140, 4-((1R,3aS,5aR,5bR,7aR,11aS,11bR,13aR,13bR)-3a-(((S)-2-amino-3-(1H-imidazol-4-yl)propanamido)methyl)-5a,5b,8,8,11a-pentamethyl-1-(prop-1-en-2-yl)-2,3,3a,4,5,5a,5b,6,7,7a,8,11,11a,11b,12,13,13a,13b-octadecahydro-1H-cyclopenta[a]chrysen-9-yl)benzoic acid]",EC50,class symbol,< 100 nM
"C=C(C)[C@@H]1CC[C@]2(CNCC(=O)OC)CC[C@]3(C)[C@H](CC[C@@H]4[C@@]5(C)CC=C(c6ccc(C(=O)O)cc6)C(C)(C)[C@@H]5CC[C@]43C)[C@@H]12 [Example 30, 4-((1R,3aS,5aR,5bR,7aR,11aS,11bR,13aR,13bR)-3a-((2-methoxy-2-oxoethylamino)methyl)-5a,5b,8,8,11a-pentamethyl-1-(prop-1-en-2-yl)-2,3,3a,4,5,5a,5b,6,7,7a,8,11,11a,11b,12,13,13a,13b-octadecahydro-1H-cyclopenta[a]chrysen-9-yl)benzoic acid]",EC50,class symbol,< 100 nM

# Reference: US8748415B2 (priority 2011, dated 2014)
